Measurements: patent US20240041042A1, “1-(PYRIDYL)-5-AZINYLPYRAZOLE DERIVATIVES, AND THEIR USE FOR CONTROL OF UNDESIRED PLANT GROWTH” (Bayer Aktiengesellschaft, priority 2020, published 2024)
Read-outs that look alike come from different tables or passages of the source.

Columns and labels:
Type in all cases: in vivo
Setaria viridis (SETVI) [1] = experiment: Pre-emergence herbicidal action against SETVI; conditions: dosage 320 g/ha
Method in brief: (§1)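 Pre-emergence soil-surface spray, WP/EC formulation, 0.5% additive, 600 l/ha water, rates of 320 g/ha or lower. Greenhouse, ~3 wk. Visual score, % of untreated control (100% = plants dead, 0% = like control).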

[2] = test system: Amaranthus retroflexus (AMARE); experiment: Pre-emergence herbicidal action against AMARE; conditions: 320 g/ha, visual scoring after about 3 weeks vs untreated controls
Method in brief: as §1

Oryza sativa (ORYSA) [3] = conditions: crop plant compatibility
Method in brief: (§2)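 Foliar application at the one-leaf stage: WP/EC formulation, 0.5% additive, 600 l/ha water. Greenhouse-grown in sandy loam. Endpoint is visual % injury relative to untreated controls at about 3 weeks.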

[4] = test system: Triticum aestivum (TRZAS); conditions: crop plant compatibility, effect vs untreated controls
Method in brief: as §2

[5] = test system: Echinochloa crus-galli (ECHCG); experiment: Pre-emergence herbicidal action against ECHCG; conditions: dosage 320 g/ha
Method in brief: as §1

Avena fatua (AVEFA) [6] = experiment: Post-emergence herbicidal action against AVEFA; conditions: 80 g/ha, visual rating about 3 weeks after treatment
Method in brief: (§3)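 Post-emergence greenhouse spray, one-leaf stage, 600 l/ha water plus 0.5% additive; WP or EC formulations; application rates 320 g/ha or lower. Visual % damage vs untreated controls at ~3 weeks.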

[7] = test system: Polygonum convolvulus (POLCO); experiment: Pre-emergence herbicidal action against POLCO; conditions: dosage 320 g/ha
Method in brief: as §1

Lolium rigidum (LOLRI) [8] = experiment: Post-emergence herbicidal action against LOLRI; conditions: dosage 80 g/ha
Method in brief: as §3

[9] = test system: Matricaria inodora (MATIN); experiment: Pre-emergence herbicidal action against MATIN; conditions: dosage 320 g/ha
Method in brief: as §1

[10] = test system: Digitaria sanguinalis (DIGSA); experiment: Pre-emergence herbicidal action against DIGSA; conditions: dosage 320 g/ha
Method in brief: as §1

Viola tricolor (VIOTR) [11] = experiment: Pre-emergence herbicidal action against VIOTR
Method in brief: as §1

[12] = test system: Echinochloa crus-galli (ECHCG); experiment: Post-emergence herbicidal action against ECHCG; conditions: dosage 80 g/ha
Method in brief: as §3

Oryza sativa (ORYSA) [13] = conditions: pre-emergence, crop plant compatibility, in comparison to untreated controls
Method in brief: (§4)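 Crop injury rated visually in percent against untreated plants roughly 3 weeks after treatment (0% no effect, 100% plants dead). Compounds, as WP or EC with 0.5% additive in 600 l/ha water, were applied to the covering soil right after sowing; greenhouse growth. Suffixes a, b, c denote different dosages.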

[14] = test system: Triticum aestivum (TRZAS); conditions: pre-emergence, crop plant compatibility, in comparison to untreated controls
Method in brief: as §4

Brassica napus (BRSNW) = conditions: 80 g/ha, crop plant compatibility, in comparison to untreated controls
Method in brief: as §4

Zea mays (ZEAMX) [15] = conditions: pre-emergence, crop plant compatibility, in comparison to untreated controls
Method in brief: as §4

[16] = test system: Matricaria inodora (MATIN); experiment: Post-emergence herbicidal action against MATIN; conditions: dosage 80 g/ha
Method in brief: as §3

[17] = test system: Alopecurus myosuroides (ALOMY); experiment: Pre-emergence herbicidal action against ALOMY; conditions: 320 g/ha; scored visually after about 3 weeks; 100% = plants have died
Method in brief: as §1

Setaria viridis (SETVI) [18] = experiment: Post-emergence herbicidal action against SETVI; conditions: dosage 80 g/ha
Method in brief: as §3

[19] = test system: Pharbitis purpurea (PHBPU); experiment: Post-emergence herbicidal action against PHBPU
Method in brief: as §3

[20] = test system: Abutilon theophrasti (ABUTH); experiment: Post-emergence herbicidal action against ABUTH; conditions: 80 g/ha, visual rating about 3 weeks after treatment vs untreated controls (100% = plants have died, 0% = like control plants)
Method in brief: as §3

[21] = test system: Pharbitis purpurea (PHBPU); experiment: Pre-emergence herbicidal action against PHBPU; conditions: dosage 320 g/ha
Method in brief: as §1

[22] = test system: Alopecurus myosuroides (ALOMY); experiment: Post-emergence herbicidal action against ALOMY; conditions: 80 g/ha, visual rating about 3 weeks after treatment vs untreated controls (100% = plants have died, 0% = like control plants)
Method in brief: as §3

Lolium rigidum (LOLRI) [23] = experiment: Pre-emergence herbicidal action against LOLRI; conditions: dosage 320 g/ha
Method in brief: as §1

Glycine max (GLXMA) [24] = experiment: Post-emergence crop plant compatibility, GLXMA; conditions: for Post-emergence action against GLXMA in %: effect in comparison to untreated controls
Procedure: Seeds of monocotyledonous and dicotyledonous weeds and crop plants are placed in sandy loam in plastic or organic planting pots, covered with soil and cultivated in a greenhouse under controlled growth conditions. 2 to 3 weeks after sowing, the test plants are treated at the one-leaf stage. The compounds of the invention, formulated in the form of wettable powders (WP) or as emulsion concentrates (EC), are then sprayed onto the green parts of the plants as aqueous suspension or emulsion with addition of 0.5% additive at a water application rate of 600 l/ha (converted). After the test plants have been kept in the greenhouse under optimum growth conditions for about 3 weeks, the activity of the preparations is rated visually in comparison to untreated controls. For example, 100% activity=the plants have died, 0% activity=like control plants.
The observed effects on selected crop plants are reported here in comparison to the untreated controls (values in %). The appendices “a”, “b” and “c” give differentiation by dosage used with otherwise the same crop plants tested.

Zea mays (ZEAMX) [25] = conditions: for Post-emergence action against ZEAMX in % (crop plant compatibility): 20 g/ha, effect in comparison to untreated controls; for Post-emergence action against ZEAMX in %: crop plant compatibility, effect vs untreated controls
Method in brief: as §2

Glycine max (GLXMA) [26] = conditions: pre-emergence, crop plant compatibility, in comparison to untreated controls
Method in brief: as §4

[27] = test system: Abutilon theophrasti (ABUTH); experiment: Pre-emergence herbicidal action against ABUTH; conditions: Dosage column 320 g/ha (title prints 3200 g/ha); scored visually after about 3 weeks; 100% = plants have died
Method in brief: as §1

Avena fatua (AVEFA) [28] = experiment: Pre-emergence herbicidal action against AVEFA; conditions: 320 g/ha, visual scoring after about 3 weeks vs untreated controls
Method in brief: as §1

[29] = test system: Polygonum convolvulus (POLCO); experiment: Post-emergence herbicidal action against POLCO; conditions: dosage 320 g/ha
Method in brief: as §3

[30] = test system: Amaranthus retroflexus (AMARE); experiment: Post-emergence herbicidal action against AMARE; conditions: 320 g/ha, visual rating about 3 weeks after treatment
Method in brief: as §3

Viola tricolor (VIOTR) [31] = experiment: Post-emergence herbicidal action against VIOTR; conditions: 320 g/ha
Method in brief: as §3

[32] = 20 g/ha, effect vs untreated controls
[33] = 80 g/ha, effect in comparison to untreated controls
[34] = 320 g/ha, effect in comparison to untreated controls

Compound | Pre-emergence action against AMARE in % [2] [%] | Post-emergence action against ORYSA in % (Oryza sativa (ORYSA) [3]; [32]) [%] | Post-emergence action against ORYSA in % (Oryza sativa (ORYSA) [3]; [33]) [%] | Post-emergence action against TRZAS in % ([4]; 20 g/ha) [%] | Pre-emergence action against ECHCG in % [5] [%] | Pre-emergence action against POLCO in % [7] [%] | Pre-emergence action against MATIN in % [9] [%] | Pre-emergence action against DIGSA in % [10] [%] | Pre-emergence action against VIOTR in % (Viola tricolor (VIOTR) [11]; 320 g/ha, Viola tricolor) [%] | Pre-emergence action against ORYSA in % (Oryza sativa (ORYSA) [13]; 80 g/ha) [%] | Pre-emergence action against TRZAS in % ([14]; 80 g/ha) [%] | Pre-emergence action against BRSNW in % (Brassica napus (BRSNW)) [%] | Pre-emergence action against ZEAMX in % (Zea mays (ZEAMX) [15]; 80 g/ha) [%] | Pre-emergence action against ALOMY [17] [%] | Post-emergence action against SETVI in % (Setaria viridis (SETVI) [18]) [%] | Post-emergence action against GLXMA in % (Glycine max (GLXMA) [24]; 20 g/ha) [%] | Post-emergence action against TRZAS in % ([4]; 80 g/ha) [%] | Post-emergence action against ZEAMX in % (Zea mays (ZEAMX) [25]; 80 g/ha) [%] | Pre-emergence action against ORYSA in % (Oryza sativa (ORYSA) [13]; 320 g/ha) [%] | Post-emergence action against GLXMA in % (Glycine max (GLXMA) [24]; 80 g/ha) [%] | also measured
CCOC(=O)CSc1nn(-c2ccccn2)c(-c2cncc(F)c2)c1Br [Example I-125] | 100 | 0 | 0 | 10 | 80 | 90 | 90 | 100 | 90 | 10 | 10 | 20 | 10 | 80 | 80 | 20 |  |  |  |  | Pre-emergence action against SETVI in % (Setaria viridis (SETVI) [1]): 90%; Post-emergence action against AVEFA in % (Avena fatua (AVEFA) [6]): 90%; Post-emergence action against LOLRI in % (Lolium rigidum (LOLRI) [8]): 80%; Post-emergence action against ECHCG in % [12]: 90%; Post-emergence action against MATIN in % [16]: 80%; Post-emergence action against PHBPU in % ([19]; dosage 80 g/ha): 80%; Post-emergence action against ABUTH in % [20]: 80%; Pre-emergence action against PHBPU in % [21]: 90%; Post-emergence action against ALOMY in % [22]: 90%; Pre-emergence action against LOLRI in % (Lolium rigidum (LOLRI) [23]): 80%
COC(=O)COc1nn(-c2ncccc2F)c(-c2cncc(F)c2)c1Br [Example I-49] |  | 0 | 10 | 0 |  |  |  |  |  | 10 | 0 | 10 | 0 |  |  | 10 | 10 | 10 | 20 |  | Post-emergence action against ZEAMX in % (crop plant compatibility) (Zea mays (ZEAMX) [25]): 0%; Pre-emergence action against TRZAS in % ([14]; 320 g/ha): 0%; Pre-emergence action against ZEAMX in % (Zea mays (ZEAMX) [15]; 320 g/ha): 0%
O=C(CSc1nn(-c2ccccn2)c(-c2cncc(F)c2)c1Br)NC1CC1 [Example I-201] |  |  | 0 |  | 90 |  | 80 |  |  | 0 | 0 |  | 20 |  |  |  | 0 | 0 | 20 | 20 | Post-emergence action against ORYSA in % (Oryza sativa (ORYSA) [3]; [34]): 0%; Post-emergence action against TRZAS in % ([4]; 320 g/ha): 10%; Post-emergence action against ZEAMX in % (Zea mays (ZEAMX) [25]; 320 g/ha): 20%; Pre-emergence action against GLXMA in % (Glycine max (GLXMA) [26]; 80 g/ha): 0%; Pre-emergence action against ABUTH [27]: 80%
CCOC(=O)COc1nn(-c2ccccn2)c(-c2cncc(F)c2)c1Cl [Example I-147] | 90 |  | 0 |  |  | 90 |  |  | 90 |  | 0 | 0 | 0 |  |  |  | 0 | 0 |  | 0 | Pre-emergence action against AVEFA in % (Avena fatua (AVEFA) [28]): 80%; Post-emergence action against POLCO in % [29]: 90%; Post-emergence action against ORYSA in % (Oryza sativa (ORYSA) [3]; [34]): 0%; Post-emergence action against TRZAS in % ([4]; 320 g/ha): 20%; Post-emergence action against ZEAMX in % (Zea mays (ZEAMX) [25]; 320 g/ha): 20%; Pre-emergence action against GLXMA in % (Glycine max (GLXMA) [26]; 80 g/ha): 0%; Pre-emergence action against GLXMA in % (Glycine max (GLXMA) [26]; 320 g/ha): 0%; Pre-emergence action against TRZAS in % ([14]; 320 g/ha): 20%; Post-emergence action against AMARE in % [30]: 90%; Post-emergence action against PHBPU in % ([19]; dosage 320 g/ha): 90%; Post-emergence action against VIOTR in % (Viola tricolor (VIOTR) [31]): 90%; Post-emergence action against GLXMA (Glycine max (GLXMA) [24]; 320 g/ha, effect vs untreated controls): 10%
COC(=O)CN(C)C(=O)COc1nn(-c2ccccn2)c(-c2ccc(F)nc2)c1Br [Example I-114] |  | 0 | 0 | 0 |  |  |  | 90 | 90 | 0 | 20 |  | 10 | 100 | 80 | 0 | 0 | 0 | 0 | 0 | Post-emergence action against ZEAMX in % (crop plant compatibility) (Zea mays (ZEAMX) [25]): 0%; Pre-emergence action against VIOTR in % (Viola tricolor (VIOTR) [11]; dosage 80 g/ha): 80%; Pre-emergence action against ZEAMX in % (Zea mays (ZEAMX) [15]; 320 g/ha): 20%; Post-emergence action against ALOMY in % [22]: 90%
